Where two headings read alike, the source gives them in different places.
Columns and labels:
Assay type in all cases: biochemical
CDK4/CCND3 = CDK4/CCND3 (Homo sapiens, UniProt P11802); assay: CDK4 homogeneous time-resolved fluorescence (HTRF) kinase assay
In short: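 IC50 values were derived from 11-point half-log dilutions, usually starting at 10 μM. Compound was first held for 20 min at 23 °C with 1.5 nM CDK4/CCND3. 1 mM ATP and 50 nM ULight-eIF4E-BP1 (Thr37/46) substrate were then added for 60 min, and the TR-FRET 665 nm signal was measured after EDTA stop and Eu-anti-phospho-4E-BP1 detection.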

CDK2/CCNE1 = CDK2/CCNE1 (Homo sapiens, UniProt P24941); assay: CDK2 homogeneous time-resolved fluorescence (HTRF) kinase assay
In short: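 IC50 derived from 11-point, half-log dilutions (usually top 10 μM) of compound, 1% DMSO. Kinase (3 nM CDK2/CCNE1) was preincubated with compound 20 min, then phosphorylated 50 nM ULight-4E-BP1 peptide at 1 mM ATP for 60 min, 23 °C. Europium-antibody TR-FRET read after EDTA stop.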

CDK1/CCNB1 = CDK1/CCNB1 (Homo sapiens, UniProt P06493); assay: CDK1 homogeneous time-resolved fluorescence (HTRF) kinase assay
CDK1/CCNB1, sequence (P06493 whole entry): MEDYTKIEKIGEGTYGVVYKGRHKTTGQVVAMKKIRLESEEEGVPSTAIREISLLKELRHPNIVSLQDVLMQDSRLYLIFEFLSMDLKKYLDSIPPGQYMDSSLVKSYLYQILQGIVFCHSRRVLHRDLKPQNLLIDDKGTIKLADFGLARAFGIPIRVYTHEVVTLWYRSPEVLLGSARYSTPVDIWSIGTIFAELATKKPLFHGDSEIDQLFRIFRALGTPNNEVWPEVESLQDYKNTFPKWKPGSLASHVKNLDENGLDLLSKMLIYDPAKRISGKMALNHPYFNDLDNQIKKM
CDK1/CCNB1, sequence (P14635 whole entry partner): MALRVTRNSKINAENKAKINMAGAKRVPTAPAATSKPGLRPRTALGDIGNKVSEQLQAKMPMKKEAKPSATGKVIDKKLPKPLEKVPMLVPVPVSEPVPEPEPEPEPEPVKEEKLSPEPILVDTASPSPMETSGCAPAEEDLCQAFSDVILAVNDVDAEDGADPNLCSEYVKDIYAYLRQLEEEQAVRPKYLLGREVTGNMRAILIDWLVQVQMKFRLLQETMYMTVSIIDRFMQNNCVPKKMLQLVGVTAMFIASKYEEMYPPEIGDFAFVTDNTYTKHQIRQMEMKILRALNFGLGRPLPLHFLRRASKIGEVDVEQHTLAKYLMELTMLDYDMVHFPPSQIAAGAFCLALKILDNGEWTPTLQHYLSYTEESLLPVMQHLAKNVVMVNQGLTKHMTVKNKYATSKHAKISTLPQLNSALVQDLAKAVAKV
In short: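 0.5 nM CDK1/CCNB1 was preincubated 20 min at 23 °C with compound in HEPES pH-unspecified buffer (MgCl2, EGTA, DTT, Tween 20), then reacted 60 min with 1 mM ATP and 50 nM ULight-4E-BP1 (Thr37/46) peptide. EDTA-stopped reactions were detected with 2 nM Eu-anti-phospho antibody; IC50 from 11-point half-log titrations.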

CDK6/CCND1 = CDK6/CCND1 (Homo sapiens, UniProt Q00534); assay: CDK6 homogeneous time-resolved fluorescence (HTRF) kinase assay
CDK6/CCND1, sequence (Q00534 whole entry): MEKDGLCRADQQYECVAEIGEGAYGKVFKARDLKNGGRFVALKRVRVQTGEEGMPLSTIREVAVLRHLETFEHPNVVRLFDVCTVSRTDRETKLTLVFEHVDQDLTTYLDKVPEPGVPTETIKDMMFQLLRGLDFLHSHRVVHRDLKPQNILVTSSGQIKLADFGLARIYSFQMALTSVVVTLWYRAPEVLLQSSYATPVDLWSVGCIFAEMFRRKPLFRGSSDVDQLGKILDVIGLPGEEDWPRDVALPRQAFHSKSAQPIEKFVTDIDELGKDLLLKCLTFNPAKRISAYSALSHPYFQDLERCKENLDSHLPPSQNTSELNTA
CDK6/CCND1, sequence (P24385 whole entry partner): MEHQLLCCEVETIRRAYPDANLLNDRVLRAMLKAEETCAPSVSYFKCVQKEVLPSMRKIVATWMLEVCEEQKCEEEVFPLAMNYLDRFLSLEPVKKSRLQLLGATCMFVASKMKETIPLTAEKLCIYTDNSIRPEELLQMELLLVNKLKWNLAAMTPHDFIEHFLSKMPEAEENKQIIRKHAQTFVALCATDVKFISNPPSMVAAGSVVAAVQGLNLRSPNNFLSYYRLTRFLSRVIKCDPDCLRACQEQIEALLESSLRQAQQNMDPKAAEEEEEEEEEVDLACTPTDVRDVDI
In short: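 Recombinant CDK6/CCND1 (1 nM final) was preincubated with compound for 20 min at 23 °C in HEPES buffer with MgCl2, EGTA, DTT and Tween 20. Kinase reaction then ran 60 min at 23 °C with 1 mM ATP and 50 nM ULight-4E-BP1 (Thr37/46) peptide, and was stopped with EDTA.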

[1] = >250 nM, CDK4/CCND, read-out: CDK4/CCND IC50, >250 nM
[2] = >250 nM, CDK1/CCNB, read-out: CDK1/CCNB IC50 >250 nM
[3] = >250 nM, CDK6/CCND, 1 mM ATP, read-out: CDK6/CCND IC50, >250 nM
[4] = CDK1/CCNB, >250 nM marked x, read-out: CDK1/CCNB IC50 >250 nM
[5] = CDK4/CCND, x = IC50 >250 nM, read-out: CDK4/CCND IC50 (>250 nM column)
[6] = CDK1/CCNB, x = IC50 >250 nM, read-out: CDK1/CCNB IC50 (>250 nM column)
[7] = CDK6/CCND, x = IC50 >250 nM, read-out: CDK6/CCND IC50 (>250 nM column)
[8] = CDK4/CCND, >250 nM marked x, read-out: CDK4/CCND IC50 >250 nM
[9] = CDK6/CCND, >250 nM marked x, read-out: CDK6/CCND IC50 >250 nM

CDK4/CCND3, sequence (P11802 whole entry): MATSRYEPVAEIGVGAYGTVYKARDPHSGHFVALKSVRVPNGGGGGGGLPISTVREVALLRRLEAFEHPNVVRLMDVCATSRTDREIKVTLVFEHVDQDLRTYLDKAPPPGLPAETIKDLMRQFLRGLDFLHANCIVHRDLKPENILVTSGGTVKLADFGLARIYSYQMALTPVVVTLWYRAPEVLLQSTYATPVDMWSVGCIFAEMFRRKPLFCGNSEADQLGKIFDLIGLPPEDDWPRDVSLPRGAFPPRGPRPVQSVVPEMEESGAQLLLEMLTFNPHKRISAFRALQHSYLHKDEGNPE
CDK4/CCND3, sequence (P30281 whole entry partner): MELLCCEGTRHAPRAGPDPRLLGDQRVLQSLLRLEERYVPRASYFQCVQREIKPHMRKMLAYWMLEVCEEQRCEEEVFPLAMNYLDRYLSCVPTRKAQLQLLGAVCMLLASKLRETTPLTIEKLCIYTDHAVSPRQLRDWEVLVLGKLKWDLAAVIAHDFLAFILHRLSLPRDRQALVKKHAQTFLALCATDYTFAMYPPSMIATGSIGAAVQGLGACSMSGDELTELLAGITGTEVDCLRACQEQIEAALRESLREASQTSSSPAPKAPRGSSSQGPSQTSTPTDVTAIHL

Cc1c(-c2nccc3cnc(Nc4ccc(S(=O)(=O)Nc5cc(C(C)(C)O)ccn5)cc4)cc23)ccc2c1cnn2CC(O)(C(F)(F)F)C(F)(F)F [Ex 710, N-(4-(2-hydroxypropan-2-yl)pyridin-2-yl)-4-((5-(4-methyl-1-(3,3,3-trifluoro-2-hydroxy-2-(trifluoromethyl)propyl)-1H-indazol-5-yl)-2,6-naphthyridin-3-yl)amino)benzenesulfonamide]
IC50 (CDK4/CCND3; [1]): > 250 nM | IC50 (CDK2/CCNE1; <25 nM, CDK2/CCNE, read-out: CDK2/CCNE IC50, <25 nM): < 25 nM | IC50 (CDK1/CCNB1; [2]): > 250 nM | IC50 (CDK6/CCND1; [3]): > 250 nM

Cc1c(-c2c(C#N)ccc3cnc(Nc4ccc(S(C)(=O)=O)cc4)nc23)ccc2c1cnn2CCO [Example 962, 8-(1-(2-hydroxyethyl)-4-methyl-1H-indazol-5-yl)-2-((4-(methylsulfonyl)phenyl)amino) quinazoline-7-carbonitrile]
IC50 (CDK4/CCND3; 1.5 nM CDK4/CCND3, 1 mM ATP, read-out: CDK4/CCND IC50 25-250 nM): 25 to 250 nM | IC50 (CDK2/CCNE1; 3 nM CDK2/CCNE1, 1 mM ATP, read-out: CDK2/CCNE IC50 <25 nM): < 25 nM | IC50 (CDK1/CCNB1; 0.5 nM CDK1/CCNB1, 1 mM ATP, read-out: CDK1/CCNB IC50 25-250 nM): 25 to 250 nM | IC50 (CDK6/CCND1; 1 nM CDK6/CCND1, 1 mM ATP, read-out: CDK6/CCND IC50 25-250 nM): 25 to 250 nM

N#Cc1ccc(C#Cc2nccc3cnc(Nc4cnc(O)c(N5CCNCC5)c4)cc23)cc1 [Ex 917, 4-((7-((6-hydroxy-5-(piperazin-1-yl)pyridin-3-yl)amino)-2,6-naphthyridin-1-yl)ethynyl)benzonitrile]
IC50 (CDK4/CCND3; [1]): > 250 nM | IC50 (CDK2/CCNE1; 25-250 nM, CDK2/CCNE, read-out: CDK2/CCNE IC50, 25-250 nM): 25 to 250 nM | IC50 (CDK1/CCNB1; [2]): > 250 nM | IC50 (CDK6/CCND1; [3]): > 250 nM

O=C(O)c1ccc(Nc2cc3c(C4=CCCCC4)nccc3cn2)cc1 [Ex 253, 4-((5-(cyclohex-1-en-1-yl)-2,6-naphthyridin-3-yl)amino)benzoic acid]
IC50 (CDK4/CCND3; CDK4/CCND, 25-250 nM marked x, read-out: CDK4/CCND IC50 25-250 nM): 25 to 250 nM | IC50 (CDK2/CCNE1; CDK2/CCNE, <25 nM, read-out: CDK2/CCNE IC50 <25 nM): < 25 nM | IC50 (CDK1/CCNB1; [4]): > 250 nM | IC50 (CDK6/CCND1; CDK6/CCND, 25-250 nM marked x, read-out: CDK6/CCND IC50 25-250 nM): 25 to 250 nM

Cc1cc(Nc2cc3c(C#Cc4ccc5c(c4)NC(=O)C5(C)C)nccc3cn2)ccc1S(C)(=O)=O [Example 406, 3,3-dimethyl-6-((7-((3-methyl-4-(methylsulfonyl)phenyl)amino)-2,6-naphthyridin-1-yl)ethynyl)indolin-2-one]
IC50 (CDK4/CCND3; [5]): > 250 nM | IC50 (CDK2/CCNE1; CDK2/CCNE, x = IC50 <25 nM, read-out: CDK2/CCNE IC50 (<25 nM)): < 25 nM | IC50 (CDK1/CCNB1; [6]): > 250 nM | IC50 (CDK6/CCND1; [7]): > 250 nM

CS(=O)(=O)c1ccc(Nc2cc3c(C4CCN(S(C)(=O)=O)C4)nccc3cn2)cc1 (racemic) [Ex 235, N-(4-(methylsulfonyl)phenyl)-5-(1-(methylsulfonyl)pyrrolidin-3-yl)-2,6-naphthyridin-3-amine]
IC50 (CDK4/CCND3; [8]): > 250 nM | IC50 (CDK2/CCNE1; CDK2/CCNE, >250 nM marked x, read-out: CDK2/CCNE IC50 >250 nM): > 250 nM | IC50 (CDK1/CCNB1; [4]): > 250 nM | IC50 (CDK6/CCND1; [9]): > 250 nM

CS(=O)(=O)c1ccc(Nc2cc3c(C#Cc4cc(F)c(N)c(F)c4)nccc3cn2)cc1 [Ex 549, 5-((4-amino-3,5-difluorophenyl)ethynyl)-N-(4-(methylsulfonyl)phenyl)-2,6-naphthyridin-3-amine]
IC50 (CDK4/CCND3; [5]): > 250 nM | IC50 (CDK2/CCNE1; CDK2/CCNE, x = IC50 25-250 nM, read-out: CDK2/CCNE IC50 (25-250 nM)): 25 to 250 nM | IC50 (CDK1/CCNB1; [6]): > 250 nM | IC50 (CDK6/CCND1; [7]): > 250 nM

CS(=O)(=O)c1ccc(Nc2cc3c(ccnc3[C@H]3CC[C@H](C(=O)NC4CCC4)CC3)cn2)cc1 [Ex 200, (1r,4r)-N-cyclobutyl-4-(7-((4-(methylsulfonyl)phenyl)amino)-2,6-naphthyridin-1-yl)cyclohexane-1-carboxamide]
IC50 (CDK4/CCND3; [8]): > 250 nM | IC50 (CDK2/CCNE1; CDK2/CCNE, 25-250 nM marked x, read-out: CDK2/CCNE IC50 25-250 nM): 25 to 250 nM | IC50 (CDK1/CCNB1; [4]): > 250 nM | IC50 (CDK6/CCND1; [9]): > 250 nM
